Data on 6 compounds can be found in patent US10245249B2, “Pharmaceutical compositions comprising nitroxyl donors” (Cardioxyl Pharmaceuticals, Inc., priority 2013, dated 2019).

Data set [1] can be described thus: In vitro stability (half-life) in rat plasma. Format: in vitro ADME. The settings on record: male, rat, plasma, pH 7.4, 5 μM, rat plasma pH 7.4 with anticoagulant, 37° C.; read-out: T1/2 (minutes) Rat. The procedure: (§1) Certain compounds from Tables 1 and 2 and CXL-1020 were tested for their stability in phosphate buffered saline (PBS) and plasma. The assay system comprised (i) PBS, or plasma from rat, dog or human (at least 3 donors, male, pooled) at pH 7.4, and (ii) for tests conducted in plasma, an anticoagulant (sodium heparin or sodium citrate). Each test compound (5 μM) was incubated in PBS or plasma at 37° C. on a THERMOMIXER® with shaking. Three samples (n=3) were taken at each of seven sampling time points: 0, 10, 30, 60, 90, 180 and 360 minutes. The samples were immediately combined with 3 volumes (i.e., 3 times the volume of PBS or plasma) of acetonitrile containing 1% formic acid and an internal standard to terminate the reaction. AB SCIEX API 3000 LC-MS/MS analysis of the test compounds was performed without a standard curve. Half-lives (T1/2) of the test compounds were determined from graphs of the percent remaining values using the peak area response ratio. For compounds tested multiple times, the value provided in the Table represents an average of the replicate assays.

Data set [2] can be described thus: In vitro stability (half-life) in human plasma. Format: in vitro ADME. Conditions: human plasma pH 7.4 with anticoagulant, 37° C.; for half-life at 5 μM: male, read-out: T1/2 (minutes) Human; for T1/2 (minutes) Human: 5 μM. The procedure: as §1
The next data set relates to normal canines. The data set is described as follows: Hemodynamic efficacy in normal canines (pressure-volume loop analysis). Format: in vivo, beagle dogs. Conditions: i.v. infusion, Dose Rate (μmol/kg/min): CXL-1020 100, (1) 50, (2) 100, (83) 65, (84) 77. The method, then:
The cardiovascular effects of nitroxyl donors were examined by means of pressure-volume (PV) curve (loops) analysis in conscious, sling-restrained beagle dogs. Animals were allowed free access to drinking water and a commercial canine diet under standard laboratory conditions. Fluorescent lighting was provided via an automatic timer for approximately 12 hours per day. On occasion, the dark cycle was interrupted intermittently due to study-related activities. Temperature and humidity were monitored and recorded daily and maintained to the maximum extent possible between 64° F. and 84° F. and 30% to 70%, respectively. The dogs were acclimated for a period of at least 1 week prior to surgery. Following surgery and recovery the animals were acclimated to sling restraint for a period up to 4.5 hours. Animals were fasted overnight prior to surgery. An indwelling venous catheter was placed in peripheral vein (e.g., cephalic) for administration of anesthetic. General anesthesia was induced intravenously (bolus) with buprenorphine (about 0.015 mg/kg) followed by an intravenous bolus of propofol (about 6 mg/kg). Additionally, a prophylactic antibiotic (cefazolin 20 to 50 mg/kg via i.v.) was given upon induction. […] Anesthesia was maintained with inhaled isoflurane (1% to 3%). Once a stable (surgical) plane of anesthesia had been established, a left-thoracotomy was performed (under strict aseptic conditions) and each animal was chronically instrumented with sono-micrometry crystals providing left-ventricular (LV) dimensions/volume. Additionally, a fluid-filled catheter and a solid-state monometer were placed in the left ventricle for pressure monitoring. A fluid-filled catheters was placed in the right ventricle (RV) and the aorta (Ao) for pressure monitoring/test article administration. […] The catheters/wires were aseptically tunneled and externalized between the scapulae. Over the course of the study, fluid-filled catheters were regularly (at least once weekly) flushed with a locking-solution in order to prevent both clotting and bacterial growth (2-3 mL of Taurolidine-Citrate solution, TCS-04; Access Technologies). Following the cardiovascular instrumentation, the right jugular vein was carefully exposed and cannulated with a bipolar pacing lead/catheter ([…]® Novus; Medtronic). Under fluoroscopic guidance, this pacing lead was advanced normograde into the right ventricle and actively affixed (screwed in) to the apical endocardium. The proximal end of the lead was secured to the pacing device (Kappa 900; Medtronic). Subsequently, the pacemaker was placed/secured in a subcutaneous pocket in the neck. Considering that the heart was exposed via a thoracotomy, a bipolar pacing wire was secured in the right ventricular mid-myocardium. This pacing lead was tunneled/externalized between the scapulae, and used in conjunction with an external impulse generator/pacemaker. The implanted endocardial pacemaker was used as a back-up to the external/epicardial pacemaker. Prior to closure of the chest from the thoracotomy, a chest tube was placed for drainage of any fluid and/or gas that accumulated from the surgical procedure. The tube was aspirated twice daily until the amount of fluid removed was less than 35 mL per aspiration in an approximately 24 hour period. The chest tube was then removed. All animals were administered a prophylactic antibiotic (cefazolin 20 to 50 mg/kg via i.v.) and pain medication (meloxicam at about 0.2 mg/kg via i.v.). If necessary, an additional analgesic was also administered which included a fentanyl patch (25 to 50 mcg/hour). All surgical incisions were closed in layers; the underlying musculature was closed with absorbable sutures and the skin was closed with staples. Following surgery, the animals were allowed to recover for at least 14 days. Cephalexin (20 to 50 mg/kg) was administered orally BID for at least 7 days and meloxicam (0.1 mg/kg) was administered SID orally or subcutaneously for at least 2 days after surgery. […]

Data set [3] is described as follows: In vitro stability (half-life) in phosphate buffered saline (PBS) pH 7.4. Format: physicochemical. Conditions: pH 7.4, 5 μM, PBS pH 7.4, 37° C., read-out: T1/2 (minutes) PBS. In short, it runs like this: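 Compounds at 5 μM were incubated at 37° C in PBS or in rat, dog or pooled human plasma (heparin or citrate) at pH 7.4. Triplicates were sampled from 0 to 360 minutes and quenched in acetonitrile/formic acid. LC-MS/MS percent remaining gave T1/2, averaged over replicate runs.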

A short description of data set [4]: In vitro stability (half-life) in dog plasma. The settings on record: male, dog, plasma, pH 7.4, 5 μM, dog plasma pH 7.4 with anticoagulant, 37° C.; read-out: T1/2 (minutes) Dog. Format: in vitro ADME. The method, then:
as §1

For a further data set, the system named is dogs. Nature of the data set: Toxicological profile of compositions formulated at pH 4 or pH 6, 24 hour infusion at 3 μg/kg/min. Format: in vivo. Conditions: FIG. 4; for effect of increasing infusate pH from approximately 4 to approximately 6 on toxicology: 1:1 molar donor:CAPTISOL, infused at 3 μg/kg/min. The method, then:
For samples at a pH of 4, the compositions were prepared by admixing a 1:1 molar ratio of the nitroxyl donor:CAPTISOL®, lyophilizing the admixture, then diluting the lyophilized admixture into D5W. For samples at a pH of 6, the compositions were prepared by admixing a 1:1 molar ratio of the nitroxyl donor:CAPTISOL®, lyophilizing the admixture, then diluting the lyophilized admixture into D5W with 5 mM potassium phosphate. Compounds were infused at a rate of 3 μg/kg/min.

The subject of data set [5] is patients with systolic heart failure. The settings on record: cited from earlier work.

SMILES strings stand for the structures.

With `O=S(=O)(NO)c1ccco1` [Compound 83, N-Hydroxyfuran-2-sulfonamide], the half-life at 5 μM in data set [1] came out at 43 min. Besides, the half-life at 5 μM in data set [2] amounted to 16 min. For the same compound, in the data set with normal canines, the EDV was −16.88 ± 1.69 % Change from Baseline, the ESP was −21.99 ± 3.32 % Change from Baseline, the ESPVR is reported as 29.33 ± 8.36 % Change from Baseline and the HR came out at 2.89 ± 2.94 % Change from Baseline. In addition, in the data set on normal canines, the PRSW stood at 19.79 ± 3.39 % Change from Baseline, the SW is recorded as −19.18 ± 6.70 % Change from Baseline and the Tau is listed as −10.10 ± 1.56 % Change from Baseline. For the same compound, in data set [3], the half-life at 5 μM was determined as 37 min. Besides, in data set [4], the half-life at 5 μM stood at 38 min.
Turning to `Cc1ccc(S(=O)(=O)NO)o1` [Compound 1, N-Hydroxy-5-methylfuran-2-sulfonamide], the “T1/2 (minutes) Human” value in data set [2] was 65 min. Besides, in the data set with normal canines, the EDV is −6 ± 2 % Change from Baseline, the ESP is reported as −18 ± 2 % Change from Baseline, the ESPVR is reported as 19 ± 1 % Change from Baseline and the HR is reported as −4 ± 2 % Change from Baseline. Also, in the data set on normal canines, the PRSW is on record as 12 ± 1 % Change from Baseline, the SW is −11 ± 4 % Change from Baseline and the Tau is listed as −6 ± 1 % Change from Baseline.
`Cc1ccc(S(=O)(=O)NO)s1` [Compound 84, N-Hydroxy-5-methylthiophene-2-sulfonamide]: in data set [1], the half-life at 5 μM was determined as 65 min. Also, in data set [2], the half-life at 5 μM worked out at 60 min. In the data set with normal canines, the EDV is on record as −10.99 ± 2.33 % Change from Baseline, the ESP is −16.85 ± 2.33 % Change from Baseline, the ESPVR is 50.71 ± 8.14 % Change from Baseline and the HR is reported as 4.31 ± 2.98 % Change from Baseline. For the same compound, in the data set on normal canines, the PRSW is given as 17.70 ± 2.35 % Change from Baseline, the SW is recorded as −13.98 ± 1.14 % Change from Baseline and the Tau was −9.60 ± 6.06 % Change from Baseline. Also, the half-life at 5 μM in data set [3] stood at 125 min. Besides, the half-life at 5 μM in data set [4] was found to be 55 min.
Take `Cn1ccc(S(=O)(=O)NO)n1` [Compound 85, N-Hydroxy-1-methyl-1H-pyrazole-3-sulfonamide]: the half-life at 5 μM in data set [3] amounted to 59 min; in data set [4], 72 min.
For `CS(=O)(=O)c1cccc(S(=O)(=O)NO)c1` [Compound 2, N-Hydroxy-3-methanesulfonylbenzene-1-sulfonamide], the “T1/2 (minutes) Human” value in data set [2] worked out at 37 min. Besides, in the data set on normal canines, the EDV is given as −17.41 ± 1.58 % Change from Baseline, the ESP was −15.22 ± 2.39 % Change from Baseline, the ESPVR is on record as 25.87 ± 5.04 % Change from Baseline and the HR is given as −6.17 ± 5.58 % Change from Baseline. In the data set on normal canines, the PRSW stood at 12.88 ± 1.12 % Change from Baseline, the SW was −17.56 ± 2.66 % Change from Baseline and the Tau is listed as −6.40 ± 7.11 % Change from Baseline. Also, in the data set with dogs, the “effect of increasing infusate pH from approximately 4 to approximately 6 on toxicology” value was “improved the toxicology”.
Take `CS(=O)(=O)c1ccccc1S(=O)(=O)NO` [CXL-1020, N-hydroxy-2-methanesulfonylbenzene-1-sulfonamide, reference compound]: in the data set on normal canines, the EDV is reported as −20.51 ± 7.63 % Change from Baseline, the ESP is −17.79 ± 3.09 % Change from Baseline, the ESPVR was 28.25 ± 8.69 % Change from Baseline and the HR worked out at 6.71 ± 4.72 % Change from Baseline. Further, in the data set on normal canines, the PRSW is recorded as 12.60 ± 2.96 % Change from Baseline, the SW is recorded as −13.96 ± 5.51 % Change from Baseline and the Tau was −6.58 ± 4.53 % Change from Baseline. Besides, the “hemodynamic effects in patients with systolic heart failure” value in data set [5] (intravenous aqueous solution at pH=4) is “reduced both left and right heart filling pressures and systemic vascular resistance, while increasing cardiac and stroke volume index”. In addition, the “side effects at threshold doses needed to produce hemodynamic effects” value in data set [5] (intravenous) is “unacceptable levels of inflammatory irritation at and distal to the intravenous insertion site”. Besides, the “effect of increasing infusate pH from approximately 4 to approximately 6 on toxicology” value in the data set on dogs is “improved the toxicology”. Moreover, the “improvement of inflammatory profile on increasing infusate pH from 4 to 6” value with dogs (dogs) is recorded as “approximately 3 fold”.
